Test results: patent US20040142887A1, “Antigen-polymer compositions” (priority 2002, published 2004)
Values after ≈ are worked out from the molar mass of the structure shown.

Assays:
[1] = not given; remark: listed apart in the source

## CC[C@H](C)[C@H](NC(=O)CNC(=O)[C@@H](NC(=O)[C@H](Cc1ccccc1)NC(=O)[C@H](CCCCN)NC(=O)[C@H](CO)NC(=O)[C@H](CC(N)=O)NC(=O)[C@H](C)NC(=O)[C@H](CCCCN)NC(=O)[C@@H](NC(=O)[C@H](Cc1ccc(O)cc1)NC(=O)[C@H](CCC(N)=O)NC(=O)[C@@H](N)CS)[C@@H](C)CC)[C@@H](C)CC)C(=O)N[C@H](C(=O)N[C@@H](CCC(=O)O)C(=O)N[C@@H](CC(C)C)C(=O)N[C@@H](CC(=O)O)C(=O)N[C@@H](CC(=O)O)C(=O)N1CCC[C@H]1C(=O)N[C@@H](CCCNC(=N)N)C(=O)N[C@@H](Cc1ccccc1)C(=O)N[C@@H](CCC(N)=O)C(=O)N[C@@H](CC(=O)O)C(=O)N[C@@H](CO)C(=O)N[C@@H](CO)C(=O)N[C@@H](CO)C(=O)N[C@@H](CO)C(=O)N[C@@H](CCCCN)C(=O)N[C@@H](C)C(=O)N1CCC[C@H]1C(=O)N1CCC[C@H]1C(=O)N1CCC[C@H]1C(=O)N[C@@H](CO)C(=O)N[C@@H](CC(C)C)C(=O)N1CCC[C@H]1C(=O)N[C@@H](CO)C(=O)N1CCC[C@H]1C(=O)N[C@@H](CO)C(=O)N[C@@H](CCCNC(=N)N)C(=O)N[C@@H](CC(C)C)C(=O)N1CCC[C@H]1C(=O)NCC(=O)N1CCC[C@H]1C(=O)N[C@@H](CO)C(=O)N[C@@H](CC(=O)O)C(=O)N[C@H](C(=O)N1CCC[C@H]1C(=O)N[C@H](C(=O)N[C@@H](CC(C)C)C(=O)N1CCC[C@H]1C(=O)N[C@@H](CCC(N)=O)C(=O)O)[C@@H](C)CC)[C@@H](C)O)[C@@H](C)O [CTP37-TT2]
other
  solubility: ~70 mg/mL (≈ 12.8 mM)
[1]; pH 1
  stability to hydrolysis in solution: stable to hydrolysis except when the pH was very low (1-2)
[1]; pH 1.4
  peptide remaining soluble at acidic pH: all peptides remained soluble
